These results are taken from patent publication US11713338B2, “Cyclic peptides multimers targeting α-4-β-7 integrin” (priority 2016, dated 2023).

Assay [1] has as its target T1, integrin α4β1 (RAMOS human cells adhering to VCAM-1) (Homo sapiens, UniProt P05556+P13612).
T1 construct: Ramos cells, which express integrin α4β1; host or cells: RAMOS
As to the kind of experiment: Integrin α4β1-VCAM cell adhesion assay (RAMOS cells). It is filed as cell-based. The settings on record: for IC50: Ramos cells adhering to VCAM, read-out: Ramos Adhesion α4β1/VCAM IC50; for Ratio Ramos/RPMI: ratio of cell adhesion IC50s, Ramos α4β1/VCAM over RPMI8866 α4β7/MAdCAM. Put shortly:
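Human RAMOS cells loaded with calcein ([…] in PBS, 37° C, 30 min) allowed to adhere to VCAM-1-coated wells blocked with 1% milk. After PBS washes, adherent-cell fluorescence measured and cell-free well background subtracted to build dose-response.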

In assay [2] the target is T2, recombinant integrin α4β1 (Homo sapiens, UniProt P05556+P13612).
T2 construct: purchased R&D Systems 5397-A3-050
T2 sequence (P05556 21-728 limits assumed, one chain of several): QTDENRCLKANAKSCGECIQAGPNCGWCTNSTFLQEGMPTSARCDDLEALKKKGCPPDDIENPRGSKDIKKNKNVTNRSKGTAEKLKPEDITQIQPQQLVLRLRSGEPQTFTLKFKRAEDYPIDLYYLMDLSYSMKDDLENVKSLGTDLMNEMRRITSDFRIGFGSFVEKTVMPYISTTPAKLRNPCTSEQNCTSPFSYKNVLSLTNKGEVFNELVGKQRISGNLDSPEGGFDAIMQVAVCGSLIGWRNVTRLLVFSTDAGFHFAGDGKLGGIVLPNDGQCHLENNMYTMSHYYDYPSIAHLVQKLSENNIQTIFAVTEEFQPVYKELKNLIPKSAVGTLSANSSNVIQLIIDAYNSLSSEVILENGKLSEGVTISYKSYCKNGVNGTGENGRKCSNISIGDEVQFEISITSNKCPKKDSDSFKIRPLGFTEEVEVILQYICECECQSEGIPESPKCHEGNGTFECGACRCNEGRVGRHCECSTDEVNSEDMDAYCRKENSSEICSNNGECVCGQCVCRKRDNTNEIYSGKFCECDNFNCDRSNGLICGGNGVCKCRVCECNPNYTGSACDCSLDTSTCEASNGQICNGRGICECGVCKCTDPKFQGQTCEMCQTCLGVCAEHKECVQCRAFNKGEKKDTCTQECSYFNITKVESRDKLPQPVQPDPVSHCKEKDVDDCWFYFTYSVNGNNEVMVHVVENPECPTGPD
As to the kind of experiment: Integrin α4β1—VCAM-1 competition ELISA. It is filed as binding. The settings on record: for ELISA Assay Ratio β1/β7: ratio of ELISA IC50s, α4β1 over α4β7; for IC50: read-out: ELISA α4β1 Assay IC50. Put shortly:
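Detection of bound ligand used HRP-conjugated anti-human IgG Fc, 1 h with agitation at room temperature. This followed a 2 h room-temperature, 300 rpm equilibration of compound in the coated wells. Washes were done in 50 mM Tris, 100 mM NaCl, 1 mM MnCl2, 0.05% Tween.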
Background: An ELISA detects its analyte on a solid surface through an enzyme-linked reagent.

Assay [3] concerns the target T3, recombinant integrin α4β7 (Homo sapiens, UniProt P13612+P26010, DEL724-798).
T3 construct: purchased R&D Systems 5397-A3-050
T3 sequence (P13612 34-970 limits assumed): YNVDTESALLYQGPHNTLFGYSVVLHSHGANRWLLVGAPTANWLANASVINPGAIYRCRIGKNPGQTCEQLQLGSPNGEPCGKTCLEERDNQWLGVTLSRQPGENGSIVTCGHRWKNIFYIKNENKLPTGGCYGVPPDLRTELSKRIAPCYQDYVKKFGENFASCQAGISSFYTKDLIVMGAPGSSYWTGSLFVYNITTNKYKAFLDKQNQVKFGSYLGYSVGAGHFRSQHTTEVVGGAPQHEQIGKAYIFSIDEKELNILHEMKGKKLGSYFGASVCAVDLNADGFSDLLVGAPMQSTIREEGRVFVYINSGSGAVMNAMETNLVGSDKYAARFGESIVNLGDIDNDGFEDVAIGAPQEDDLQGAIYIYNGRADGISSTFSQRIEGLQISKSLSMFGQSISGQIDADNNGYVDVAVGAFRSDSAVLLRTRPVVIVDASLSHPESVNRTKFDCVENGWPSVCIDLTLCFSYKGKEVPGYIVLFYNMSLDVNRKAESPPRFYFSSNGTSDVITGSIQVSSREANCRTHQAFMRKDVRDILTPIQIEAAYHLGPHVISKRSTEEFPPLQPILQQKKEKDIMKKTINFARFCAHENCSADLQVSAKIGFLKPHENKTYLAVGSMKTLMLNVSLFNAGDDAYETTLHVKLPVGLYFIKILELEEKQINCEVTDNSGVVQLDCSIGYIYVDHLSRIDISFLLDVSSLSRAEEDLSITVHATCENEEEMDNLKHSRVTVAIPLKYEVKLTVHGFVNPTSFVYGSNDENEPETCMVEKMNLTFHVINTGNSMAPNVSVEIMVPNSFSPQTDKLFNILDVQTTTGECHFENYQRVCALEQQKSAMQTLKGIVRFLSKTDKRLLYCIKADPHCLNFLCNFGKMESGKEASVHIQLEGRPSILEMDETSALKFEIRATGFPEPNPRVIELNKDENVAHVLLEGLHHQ
T3 sequence (P26010 20-723 limits assumed): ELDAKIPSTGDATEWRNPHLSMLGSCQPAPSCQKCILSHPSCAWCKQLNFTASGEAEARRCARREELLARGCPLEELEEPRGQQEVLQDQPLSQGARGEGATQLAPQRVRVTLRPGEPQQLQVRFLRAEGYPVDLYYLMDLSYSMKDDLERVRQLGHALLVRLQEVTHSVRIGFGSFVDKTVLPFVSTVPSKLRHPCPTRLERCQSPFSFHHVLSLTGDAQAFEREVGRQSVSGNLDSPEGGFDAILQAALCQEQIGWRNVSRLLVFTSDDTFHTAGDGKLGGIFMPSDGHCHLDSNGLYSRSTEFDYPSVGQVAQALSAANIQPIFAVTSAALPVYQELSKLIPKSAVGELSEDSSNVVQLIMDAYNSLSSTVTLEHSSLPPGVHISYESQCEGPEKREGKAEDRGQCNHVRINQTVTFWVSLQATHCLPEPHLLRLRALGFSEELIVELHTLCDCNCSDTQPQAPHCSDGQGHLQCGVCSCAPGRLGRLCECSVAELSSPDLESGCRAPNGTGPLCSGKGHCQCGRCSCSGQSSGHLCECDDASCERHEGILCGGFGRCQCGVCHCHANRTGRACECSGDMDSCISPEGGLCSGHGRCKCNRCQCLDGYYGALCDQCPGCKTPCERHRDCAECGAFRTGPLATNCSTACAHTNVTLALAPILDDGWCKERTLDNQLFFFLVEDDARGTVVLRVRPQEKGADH
As to the kind of experiment: Integrin α4β7—MAdCAM-1 ELISA competition assay. It is filed as binding. Particulars: read-out: ELISA α4β7 Assay IC50.
Protocol: Integrin α4β7—MAdCAM-1 ELISA Competition Assay
The plate was incubated at 40C overnight. […] The plate was then incubated for 1 hour at room temperature. The plate was washed three times with wash buffer (50 mM Tris, 100 mM NaCl, 1 mM MnCl2, 0.05% Tween). To each well, 50 μl of compound diluted in assay buffer was added by transfer from a compound serial dilution plate. […] The plate was incubated at room temperature with shaking (300 rpm) for 2 hours to reach binding equilibrium. […] The plate was incubated at room temperature for 1 hour under agitation.

T1 sequence (P13612 34-1032): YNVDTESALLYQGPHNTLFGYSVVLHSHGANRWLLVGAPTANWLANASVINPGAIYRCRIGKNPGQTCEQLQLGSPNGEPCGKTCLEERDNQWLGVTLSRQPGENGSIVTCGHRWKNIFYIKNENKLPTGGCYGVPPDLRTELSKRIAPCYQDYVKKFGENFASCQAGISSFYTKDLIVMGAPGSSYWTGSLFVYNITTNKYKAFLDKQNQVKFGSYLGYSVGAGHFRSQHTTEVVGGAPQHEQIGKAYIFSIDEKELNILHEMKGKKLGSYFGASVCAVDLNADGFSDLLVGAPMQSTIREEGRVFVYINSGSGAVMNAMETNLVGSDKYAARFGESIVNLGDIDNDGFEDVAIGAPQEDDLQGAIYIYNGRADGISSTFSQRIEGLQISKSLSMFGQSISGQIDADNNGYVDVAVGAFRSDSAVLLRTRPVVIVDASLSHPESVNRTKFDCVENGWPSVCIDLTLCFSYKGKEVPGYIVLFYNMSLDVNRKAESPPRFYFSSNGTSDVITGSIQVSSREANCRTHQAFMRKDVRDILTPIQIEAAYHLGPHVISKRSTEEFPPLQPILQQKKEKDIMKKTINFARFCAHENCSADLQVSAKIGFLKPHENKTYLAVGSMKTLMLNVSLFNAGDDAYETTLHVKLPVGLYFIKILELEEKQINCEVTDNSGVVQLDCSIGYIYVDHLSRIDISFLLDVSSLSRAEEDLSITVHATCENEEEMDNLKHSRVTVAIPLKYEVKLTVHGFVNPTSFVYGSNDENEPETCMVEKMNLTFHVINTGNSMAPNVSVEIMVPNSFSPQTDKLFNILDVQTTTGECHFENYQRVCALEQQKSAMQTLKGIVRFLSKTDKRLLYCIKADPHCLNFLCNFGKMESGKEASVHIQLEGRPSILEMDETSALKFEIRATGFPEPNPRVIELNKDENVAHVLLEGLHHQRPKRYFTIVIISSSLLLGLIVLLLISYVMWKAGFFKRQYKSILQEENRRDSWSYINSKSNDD
T1 sequence (P05556 21-798): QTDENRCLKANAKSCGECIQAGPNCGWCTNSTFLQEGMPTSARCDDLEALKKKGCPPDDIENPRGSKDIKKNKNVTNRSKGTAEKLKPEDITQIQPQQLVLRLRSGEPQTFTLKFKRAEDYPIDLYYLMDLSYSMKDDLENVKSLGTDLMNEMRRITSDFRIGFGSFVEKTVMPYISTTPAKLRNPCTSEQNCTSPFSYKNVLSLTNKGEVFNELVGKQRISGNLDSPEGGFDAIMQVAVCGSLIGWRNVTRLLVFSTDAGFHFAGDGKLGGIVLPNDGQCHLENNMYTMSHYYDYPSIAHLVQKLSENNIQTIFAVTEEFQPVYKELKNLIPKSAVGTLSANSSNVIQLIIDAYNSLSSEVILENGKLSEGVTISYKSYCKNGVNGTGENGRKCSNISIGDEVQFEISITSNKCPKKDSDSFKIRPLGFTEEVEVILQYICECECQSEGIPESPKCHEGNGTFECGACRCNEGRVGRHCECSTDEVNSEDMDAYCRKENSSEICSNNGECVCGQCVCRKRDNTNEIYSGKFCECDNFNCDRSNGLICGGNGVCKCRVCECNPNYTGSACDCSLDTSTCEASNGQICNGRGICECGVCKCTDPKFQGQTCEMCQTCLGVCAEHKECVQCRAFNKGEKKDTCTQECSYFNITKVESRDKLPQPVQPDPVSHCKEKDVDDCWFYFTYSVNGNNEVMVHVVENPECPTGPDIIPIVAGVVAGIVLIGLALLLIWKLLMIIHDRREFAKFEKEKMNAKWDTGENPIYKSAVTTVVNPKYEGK

On to `CC(C)C[C@@H]1NC(=O)c2ccc(-c3ccc(N4CCN(C(=O)C[C@@H](N)C(=O)N5CCN(c6ccc(-c7ccc8cc7CNC(=O)[C@@H]7CCCN7[C@H](C(=O)NC(C)(C)C)[C@H](C)NC(=O)[C@H]([C@@H](C)O)NC(=O)[C@H](CC(=O)O)NC(=O)[C@H](CC(C)C)NC8=O)cc6)CC5)CC4)cc3)c(c2)CNC(=O)[C@@H]2CCCN2[C@H](C(=O)NC(C)(C)C)[C@H](C)NC(=O)[C@H]([C@@H](C)O)NC(=O)[C@H](CC(=O)O)NC1=O` [Compound 493], for which, in assay [1], the IC50 stood at 1.25 µM and the “Ratio Ramos/RPMI” value is given as 28. Moreover, in assay [2], the “ELISA Assay Ratio β1/β7” value came to 0.3 and the IC50 worked out at 0.0035 µM. For the same compound, in assay [3], the IC50 was determined as 0.012 µM.
Regarding `CC(C)C[C@@H]1NC(=O)c2ccc(-c3ccc(N4CCN(C(=O)CC[C@H](N)C(=O)N5CCN(c6ccc(-c7ccc8cc7CNC(=O)[C@@H]7CCCN7[C@H](C(=O)NC(C)(C)C)[C@H](C)NC(=O)[C@H]([C@@H](C)O)NC(=O)[C@H](CC(=O)O)NC(=O)[C@H](CC(C)C)NC8=O)cc6)CC5)CC4)cc3)c(c2)CNC(=O)[C@@H]2CCCN2[C@H](C(=O)NC(C)(C)C)[C@H](C)NC(=O)[C@H]([C@@H](C)O)NC(=O)[C@H](CC(=O)O)NC1=O` [Compound 494], in assay [1], the IC50 came to 0.161 µM and the “Ratio Ramos/RPMI” value worked out at 3. Further, in assay [2], the “ELISA Assay Ratio β1/β7” value stood at 0.2 and the IC50 was found to be 0.0019 µM. The IC50 in assay [3] was 0.0094 µM.
As to `CC(C)C[C@@H]1NC(=O)c2ccc(-c3ccc(N4CCN(C(=O)[C@H](CCCCNC(=O)CCCCCC(=O)NCCCC[C@H](NC(=O)OCc5ccccc5)C(=O)N5CCN(c6ccc(-c7ccc8cc7CNC(=O)[C@@H]7CCCN7[C@H](C(=O)NC(C)(C)C)[C@H](C)NC(=O)[C@H]([C@@H](C)O)NC(=O)[C@H](CC(=O)O)NC(=O)[C@H](CC(C)C)NC8=O)cc6)CC5)NC(=O)OCc5ccccc5)CC4)cc3)c(c2)CNC(=O)[C@@H]2CCCN2[C@H](C(=O)NC(C)(C)C)[C@H](C)NC(=O)[C@H]([C@@H](C)O)NC(=O)[C@H](CC(=O)O)NC1=O` [Compound 498], the IC50 in assay [1] is 1.36 µM; in assay [2], 0.003 µM; in assay [3], 0.012 µM.
As to `CC(C)C[C@@H]1NC(=O)c2ccc(-c3ccc(N4CCN(Cc5cccc(CN6CCN(c7ccc(-c8ccc9cc8CNC(=O)[C@@H]8CCCN8[C@H](C(=O)NC(C)(C)C)[C@H](C)NC(=O)[C@H]([C@@H](C)O)NC(=O)[C@H](CC(=O)O)NC(=O)[C@H](CC(C)C)NC9=O)cc7)CC6)c5)CC4)cc3)c(c2)CNC(=O)[C@@H]2CCCN2[C@H](C(=O)NC(C)(C)C)[C@H](C)NC(=O)[C@H]([C@@H](C)O)NC(=O)[C@H](CC(=O)O)NC1=O` [Compound 499], in assay [1], the IC50 was determined as 0.878 µM and the “Ratio Ramos/RPMI” value is given as 21. In addition, in assay [2], the “ELISA Assay Ratio β1/β7” value came to 0.2 and the IC50 came to 0.0031 µM. Further, the IC50 in assay [3] was 0.017 µM.
In the case of `CC(C)C[C@@H]1NC(=O)c2ccc(-c3ccc(N4CCN(Cc5ccc(CN6CCN(c7ccc(-c8ccc9cc8CNC(=O)[C@@H]8CCCN8[C@H](C(=O)NC(C)(C)C)[C@H](C)NC(=O)[C@H]([C@@H](C)O)NC(=O)[C@H](CC(=O)O)NC(=O)[C@H](CC(C)C)NC9=O)cc7)CC6)cc5)CC4)cc3)c(c2)CNC(=O)[C@@H]2CCCN2[C@H](C(=O)NC(C)(C)C)[C@H](C)NC(=O)[C@H]([C@@H](C)O)NC(=O)[C@H](CC(=O)O)NC1=O` [Compound 500], in assay [1], the IC50 turned out to be 1 µM and the “Ratio Ramos/RPMI” value was 31. Besides, in assay [2], the “ELISA Assay Ratio β1/β7” value is 0.8 and the IC50 came out at 0.0099 µM. Moreover, in assay [3], the IC50 is 0.012 µM.
`CC(C)C[C@@H]1NC(=O)c2ccc(-c3ccc(N4CCN(C(=O)CCOCCOCCNC(=O)CCCCCC(=O)NCCOCCOCCC(=O)N5CCN(c6ccc(-c7ccc8cc7CNC(=O)[C@@H]7CCCN7[C@H](C(=O)NC(C)(C)C)[C@H](C)NC(=O)[C@H]([C@@H](C)O)NC(=O)[C@H](CC(=O)O)NC(=O)[C@H](CC(C)C)NC8=O)cc6)CC5)CC4)cc3)c(c2)CNC(=O)[C@@H]2CCCN2[C@H](C(=O)NC(C)(C)C)[C@H](C)NC(=O)[C@H]([C@@H](C)O)NC(=O)[C@H](CC(=O)O)NC1=O` [Compound 505]: in assay [1], the IC50 is 1.78 µM and the “Ratio Ramos/RPMI” value was determined as 30. Besides, in assay [2], the “ELISA Assay Ratio β1/β7” value is 0.3 and the IC50 worked out at 0.0066 µM. The IC50 in assay [3] was 0.019 µM.
As for `CC(C)C[C@@H]1NC(=O)c2ccc(-c3ccc(N4CCN(C(=O)CCOCCOCCOCCOCCOCCOCCOCCOCCOCCOCCC(=O)N5CCN(c6ccc(-c7ccc8cc7CNC(=O)[C@@H]7CCCN7[C@H](C(=O)NC(C)(C)C)[C@H](C)NC(=O)[C@H]([C@@H](C)O)NC(=O)[C@H](CC(=O)O)NC(=O)[C@H](CC(C)C)NC8=O)cc6)CC5)CC4)cc3)c(c2)CNC(=O)[C@@H]2CCCN2[C@H](C(=O)NC(C)(C)C)[C@H](C)NC(=O)[C@H]([C@@H](C)O)NC(=O)[C@H](CC(=O)O)NC1=O` [Compound 511], the IC50 in assay [1] came out at 3.99 µM; in assay [2] it was 0.0072 µM; in assay [3] it was 0.011 µM. Besides, the “Ratio Ramos/RPMI” value in assay [1] is 133. In addition, the “ELISA Assay Ratio β1/β7” value in assay [2] stood at 0.6.
For `CC(C)C[C@@H]1NC(=O)c2ccc(-c3ccc(N4CCN(Cc5cc(CN6CCN(c7ccc(-c8ccc9cc8CNC(=O)[C@@H]8CCCN8[C@H](C(=O)NC(C)(C)C)[C@H](C)NC(=O)[C@H]([C@@H](C)O)NC(=O)[C@H](CC(=O)O)NC(=O)[C@H](CC(C)C)NC9=O)cc7)CC6)cc(CN6CCN(c7ccc(-c8ccc9cc8CNC(=O)[C@@H]8CCCN8[C@H](C(=O)NC(C)(C)C)[C@H](C)NC(=O)[C@H]([C@@H](C)O)NC(=O)[C@H](CC(=O)O)NC(=O)[C@H](CC(C)C)NC9=O)cc7)CC6)c5)CC4)cc3)c(c2)CNC(=O)[C@@H]2CCCN2[C@H](C(=O)NC(C)(C)C)[C@H](C)NC(=O)[C@H]([C@@H](C)O)NC(=O)[C@H](CC(=O)O)NC1=O` [Compound 518], the IC50 in assay [1] was determined as 0.947 µM; in assay [2] it was 0.0087 µM; in assay [3], 0.036 µM.
Consider `CC(C)C[C@@H]1NC(=O)C[C@H](CCCCN)N(C)C(=O)[C@H](CCCCNC(=O)CCCCCCCCC(=O)NCCCC[C@@H]2NC(=O)[C@@H]3CCCN3[C@H](C(=O)NC(C)(C)C)[C@H](C)NC(=O)[C@H]([C@@H](C)O)NC(=O)[C@H](CC(=O)O)NC(=O)[C@H](CC(C)C)NC(=O)C[C@H](CCCCN)N(C)C2=O)NC(=O)[C@@H]2CCCN2[C@H](C(=O)NC(C)(C)C)[C@H](C)NC(=O)[C@H]([C@@H](C)O)NC(=O)[C@H](CC(=O)O)NC1=O` [Compound 530], for which, in assay [1], the IC50 stood at 10.6 µM and the “Ratio Ramos/RPMI” value stood at 704. In assay [2], the “ELISA Assay Ratio β1/β7” value is reported as 1.0 and the IC50 worked out at 0.0051 µM. Further, the IC50 in assay [3] was 0.0053 µM.
